Data set [1] relates to SARS-CoV-2 pseudovirus. The data set is described as follows: microbe, parasite or virus in culture. The data set is classed as cell-based. Particulars: Severe acute respiratory syndrome-related coronavirus, read-out: Inhibition rate (%), 5.0 µM, BHK-21-hACE2 cells.
Data set [2] concerns SARS-CoV-2 pseudovirus. The data set is described as follows: microbe, parasite or virus in culture. Particulars: Severe acute respiratory syndrome-related coronavirus, read-out: EC50, concentration resulting in 50% inhibition of virus replication. Format: cell-based.
A short description of data set [3]: in vitro. The note with it: hamster, Cell viability (%), BHK-21-hACE2 cells.
Data set [4] deals with influenza virus A/Puerto Rico/8/34 (H1N1). The data set is classed as cell-based. The note with it: read-out: IC50, concentration resulting in 50% inhibition of virus replication; A/Puerto Rico/8/34 (H1N1) in MDCK cells.

The structures appear in SMILES notation.

For the molecule `CCN(CC)Cc1cc(Nc2ccnc3cc(Cl)ccc23)ccc1O` [Amodiaquine, amodiaquine], in data set [1], the inhibition at 5 µM is 92.4%. In data set [2], the EC50 came to 3.17 µM. Also, the viability at 20 µM in data set [3] was found to be 107%.
Take `CCC(CC)O[C@@H]1C=C(C(=O)O)C[C@H](N)[C@H]1NC(C)=O` [Oseltamivir carboxylate]: in data set [4], the IC50 amounted to 6.4 µM.

Broadly, the inhibition is the change of the read-out against control, counted positive when it falls. As usually defined, the viability is a read-out of living cells in per cent, often relative to untreated cells.

The record behind these values is paper PMC9343747 (Phytochemistry Letters, 2022).
